Assay results reported in patent publication US20100069248A1, “HERBICIDE COMBINATION COMPRISING DIMETHOXYTRIAZINYL SUBSTITUTED DIFLUOROMETHANESULFONYLANILIDES” (BAYER CROPSCIENCE AG, priority 2008, published 2010).

Experiments:
Type in all cases: in vivo
[1] = tested on: Stellaria media (STEME); assay: Post-emergence action against weeds, greenhouse pots, visual scoring; conditions: 10 DAT
Method: (§1) Seeds or rhizome pieces of mono- and dicotyledonous harmful and useful plants were placed in peat pots (diameter 4 cm) filled with sandy loam and then covered with soil. The pots were kept in a greenhouse under optimum conditions. In addition, harmful plants encountered in paddy rice cultivation were cultivated in pots with a water level 2 cm above the soil surface.
(§2) About three weeks after the start of the cultivation, the test plants were treated at the 2- to 3-leaf stage. The herbicides, formulated as powder or liquid concentrates, were, either alone or in the combinations according to the invention, sprayed in various dosages on to the green parts of the plants using an application rate of 600 l of water/ha (converted). For further cultivation of the plants, the pots were then again kept under optimum conditions in a greenhouse.
(§3) The visual scoring of the herbicidal effects was carried out in intervals up to 21 days after the treatment. Scoring was carried out in percent in comparison to the untreated control plants. 0%=no herbicidal activity, 100%=complete herbicidal activity=complete kill.
(§4) The percentages from the treatments with the herbicides alone (=individual application) and with the combinations according to the invention (=mixtures) were employed to calculate interactions using the method of Colby. When the observed efficacies of the mixtures exceed the formal sum of the values of the tests with individual applications, they also exceed the expected value according to Colby, which is calculated using the formula below (cf. S. R. Colby; in Weeds 15 (1967) pp. 20 to 22):
(§5) • A, B=activity of components A and B in percent at a dosage of a and b g of ai/ha (=gramm of active substance per hectare), respectively. • E=expected value in % at a dosage of a+b g of ai/ha.

[2] = tested on: Setaria viridis (SETVI); assay: as above; conditions: 21 DAT
Method: as §1, §2, §3, §4, §5

[3] = tested on: Cyperus esculentus (CYPES); assay: as above; conditions: 21 DAT
Method: as §1, §2, §3, §4, §5

[4] = tested on: Lolium multiflorum (LOLMU); assay: as above
Method: as §1, §2, §3, §4, §5

[5] = tested on: Alopecurus myosuroides (ALOMY); assay: as above
Method: as §1, §2, §3, §4, §5

[6] = tested on: Zea mays (ZEAMX); assay: Post-emergence action, greenhouse pots, visual scoring; conditions: component B 60 g of ai/ha
Method: as §1, §2, §3, §4, §5

[7] = tested on: Fallopia (ex Polygonum) convolvulus (POLCO); assay: Post-emergence action against weeds, greenhouse pots, visual scoring; conditions: 21 DAT
Method: as §1, §2, §3, §4, §5

[8] = tested on: Matricaria inodora (MATIN); assay: as above; conditions: 21 DAT
Method: as §1, §2, §3, §4, §5

[9] = tested on: Amaranthus retroflexus (AMARE); assay: as above; conditions: 21 DAT, component B 60 g of ai/ha
Method: as §1, §2, §3, §4, §5

[10] = tested on: Viola tricolor (VIOTR); assay: as above
Method: as §1, §2, §3, §4, §5

[11] = tested on: Avena fatua (AVEFA); assay: as above; conditions: 21 DAT, component B 60 g of ai/ha
Method: as §1, §2, §3, §4, §5

[12] = tested on: Triticum aestivum (TRZAS); assay: Post-emergence action, greenhouse pots, visual scoring; conditions: 10 DAT, component B 180 g of ai/ha
Method: as §1, §2, §3, §4, §5

[13] = 10 DAT, component B 60 g of ai/ha
[14] = 10 DAT, component B 180 g of ai/ha
[15] = 21 DAT, component B 60 g of ai/ha
[16] = 21 DAT, component B 180 g of ai/ha

Which “% activity found” value ([1]; component A 4 g of ai/ha) does the source give for `COc1nc(OC)nc(C(=O)c2cccc(F)c2N(C)S(=O)(=O)C(F)F)n1` [A-1] here?
Its value is 70%.

What about the “% activity found” value ([1]; component A 12 g of ai/ha) of the same molecule?
Its value is 70%.

With `COc1c(Cl)ccc(Cl)c1C(=O)O` [B1-1, 3,6-dichloro-2-methoxybenzoic acid] as the molecule, how does the “% activity found” value ([2]; component B 60 g of ai/ha) read?
The value was 0%.

What about the “% activity found” value ([2]; component B 180 g of ai/ha) of the same molecule?
Its value is 20%.

And the “% activity found” value ([3]; component B 60 g of ai/ha)?
Its value is 0%.

And the “% activity found” value ([3]; component B 180 g of ai/ha)?
The value was 0%.

And the “% activity found” value [4, 13]?
The value was 0%.

And the “% activity found” value [4, 14]?
The value was 10%.

What about the “% activity found” value [4, 15] of the same molecule?
Its value is 0%.

And the “% activity found” value [5, 15]?
Its value is 0%.

What about the “% activity found” value [5, 16] of the same molecule?
The value was 0%.

And the “% activity found” value ([6]; 10 DAT)?
Its value is 0%.

What does the source list for `O=C(O)c1c(Cl)ccc2cc(Cl)cnc12` [B3-1, 3,7-dichloro-8-quinolinecarboxylic acid]?
% activity found ([7]; component B 60 g of ai/ha): 0%; % activity found ([7]; component B 180 g of ai/ha): 0%; % activity found ([1]; component B 60 g of ai/ha): 10%; % activity found ([8]; component B 60 g of ai/ha): 0%; % activity found ([8]; component B 180 g of ai/ha): 0%; % activity found [9]: 40%; % activity found ([3]; component B 60 g of ai/ha): 0%; % activity found ([3]; component B 180 g of ai/ha): 0%; % activity found [10, 14]: 20%; % activity found [10, 15]: 40%; % activity found [4, 13]: 0%; % activity found [4, 14]: 0%; % activity found [11]: 0%; % activity found [5, 13]: 0%; % activity found [5, 14]: 0%; % activity found [5, 15]: 0%; % activity found [5, 16]: 0%; % activity found ([6]; 10 DAT): 0%; % activity found ([6]; 21 DAT): 0%; % activity found [12]: 0%
